What all share (assay): PTP IC50 assay, pNPP or FDP as substrate
Common to all, as to format: biochemical

One assay deals with T1, PTP 1B (Homo sapiens, UniProt P18031).
T1 construct: made in house; host or cells: Sf-9 insect cells (pFastBac-G2T)
T1 sequence (P18031 1-435): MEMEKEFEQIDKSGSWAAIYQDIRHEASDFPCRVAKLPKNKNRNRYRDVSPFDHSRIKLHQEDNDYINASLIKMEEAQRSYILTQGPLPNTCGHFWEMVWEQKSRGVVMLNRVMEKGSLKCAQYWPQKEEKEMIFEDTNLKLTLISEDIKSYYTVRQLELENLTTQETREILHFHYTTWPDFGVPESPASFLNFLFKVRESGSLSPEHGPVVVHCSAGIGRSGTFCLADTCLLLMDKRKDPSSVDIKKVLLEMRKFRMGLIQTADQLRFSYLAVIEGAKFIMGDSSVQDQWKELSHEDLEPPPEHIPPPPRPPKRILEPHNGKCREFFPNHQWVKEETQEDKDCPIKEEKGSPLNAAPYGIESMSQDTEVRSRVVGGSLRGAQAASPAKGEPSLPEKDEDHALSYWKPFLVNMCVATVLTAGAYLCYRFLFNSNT
How it is done: (§1) The following in vitro assay procedure is preferred to determine the level of activity and effect of the different compounds of the present invention on one or more of the PTPs. Similar assays can be designed along the same lines for any PTP using techniques well known in the art.
(§2) The catalytic assays described herein are performed in a 96-well format. The general procedure begins with the determination of PTP optimal pH using a three-component buffer system that minimizes ionic strength variations across a wide range of buffer pH. Next, the Michaelis-Menten constant, or Km, is determined for each specific substrate-PTP system. This Km value is subsequently used as the substrate reaction concentration for compound screening. Finally, the test PTP is exposed to varying concentrations of compound for fifteen minutes and allowed to react with substrate for ten minutes. The results are plotted as percent inhibition versus compound concentration and the IC50 interpolated from the plot.
(§3) All assays were performed using pNPP or FDP as substrate. The optimum pH was determined for each PTP used.
(§4) PTPase activity was assayed at 25° C. in a 100-μl reaction mixture containing an appropriate concentration of pNPP or FDP as substrate. The reaction was initiated by addition of the PTP and quenched after 10 min by addition of 50 μl of IN NaOH. The non-enzymatic hydrolysis of the substrate was corrected by measuring the control without the addition of the enzyme. The amount of p-nitrophenol produced was determined from the absorbance at 410 nm. To determine the kinetic parameter, Km, the initial velocities were measured at various substrate concentrations and the data were fitted to the Michaelis equation where velocity=(Vmax*[S])/(Km+[S]), and [S]=substrate reaction concentration.
(§5) The effect of the compounds on PTP was evaluated at 25° C. using pNPP or FDP as substrate. PTP was pre-incubated for fifteen minutes with various concentrations of compound. Substrate was then added at a fixed concentration (usually equal to the Km previously calculated). After 10 minutes, NaOH was added to stop the reaction. The hydrolysis of pNPP was followed at 410 nm on the Biotek Powerwave 200 microplate scanning spectrophotometer. The percent inhibition was calculated as follows: Percent Inhibition=[(control signal−compound signal)/control signal] ×100%. The IC50 was then determined by interpolation of a percent inhibition versus compound concentration plot.
(§6) Plasmids designed for bacterial GST-PTP fusion protein expression were derived by insertion of PCR-generated human PTP fragments into pGEX vectors (Pharmacia Biotech). Several of these constructs were then used to subclone phosphatases into pFastBac-1for expression in Sf-9 insect cells. Oligonucleotides used for the initial amplification of PTP genes are shown below. The cDNAs were prepared using the Gilbo BRL superscript preamplification system on RNAs purchased from Clontech.
The PTP1b cDNA was amplified from human placenta single strand cDNA (Clontech RNA) using the following oligonucleotides: 5′oligo: 5′-[…] (SEQ ID NO: 4) 3′oligo: 5′-[…] (SEQ ID NO: 5) It was subsequently ligated into pFasBac G2TBamH1Xba-1 sites.

The next assay addresses T2, PTP SIGMA (Homo sapiens, UniProt Q13332).
T2 construct: made in house; host or cells: E. coli BL-21 (pGEX 6P-1)
T2 sequence (Q13332 1320-1660 limits assumed): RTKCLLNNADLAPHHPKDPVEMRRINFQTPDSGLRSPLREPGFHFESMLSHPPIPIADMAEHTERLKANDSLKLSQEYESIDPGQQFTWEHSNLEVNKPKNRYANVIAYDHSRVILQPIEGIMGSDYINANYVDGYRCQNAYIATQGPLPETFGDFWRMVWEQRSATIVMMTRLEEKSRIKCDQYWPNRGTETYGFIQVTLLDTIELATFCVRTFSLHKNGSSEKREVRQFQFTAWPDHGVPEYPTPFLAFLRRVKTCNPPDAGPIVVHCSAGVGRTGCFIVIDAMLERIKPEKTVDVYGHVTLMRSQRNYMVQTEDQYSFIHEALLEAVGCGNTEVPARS
Here is the method: as §1, §2, §3, §4, §5, §6
The PTP Sigma cDNA was amplified from human brain single strand cDNA (Clontech RNA) using the following oligonucleotides: 5′oligo: 5′-[…]-3′ (SEQ ID NO: 12) 3′oligo: 5′-[…]-3′ (SEQ ID NO: 13) and subsequently ligated into pGex 6P-1 Eco RI/Xho I sites.

Another assay deals with T3, PTP BETA (Homo sapiens, UniProt P23467).
T3 construct: The catalytic domain was amplified using the following oligonucleotides; made in house; host or cells: E. coli BL-21 (pGEX 6P-1)
T3 sequence (P23467 1653-1997): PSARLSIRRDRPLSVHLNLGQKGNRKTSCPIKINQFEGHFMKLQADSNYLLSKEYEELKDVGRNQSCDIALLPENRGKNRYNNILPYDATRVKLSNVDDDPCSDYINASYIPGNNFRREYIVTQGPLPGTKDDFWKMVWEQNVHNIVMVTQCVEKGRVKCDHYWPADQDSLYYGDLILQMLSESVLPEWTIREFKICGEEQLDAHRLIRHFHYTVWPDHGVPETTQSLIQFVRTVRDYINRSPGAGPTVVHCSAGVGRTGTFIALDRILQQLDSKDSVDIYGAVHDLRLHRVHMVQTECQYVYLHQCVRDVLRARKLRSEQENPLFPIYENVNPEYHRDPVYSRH
Here is the method:
as §1, §2, §3, §4, §5, §6
The PTP Beta cDNA used has been described earlier (Levy et al., 1993, J. Biol. Chem, 268:10573-10581). The catalytic domain was amplified using the following oligonucleotides: 5′oligo: 5′-[…]-3′ (SEQ ID NO: 16) 3′oligo: 5′-[…]-3′ (SEQ ID NO: 17) and subsequently cloned into the Eco RI/Xho I sites of pGEX 6P-1.

The target of another assay is T4, PTP MU (Homo sapiens, UniProt P28827).
T4 construct: made in house; host or cells: E. coli BL-21 (pGEX 6P-1)
T4 sequence (P28827 831-1186 limits assumed): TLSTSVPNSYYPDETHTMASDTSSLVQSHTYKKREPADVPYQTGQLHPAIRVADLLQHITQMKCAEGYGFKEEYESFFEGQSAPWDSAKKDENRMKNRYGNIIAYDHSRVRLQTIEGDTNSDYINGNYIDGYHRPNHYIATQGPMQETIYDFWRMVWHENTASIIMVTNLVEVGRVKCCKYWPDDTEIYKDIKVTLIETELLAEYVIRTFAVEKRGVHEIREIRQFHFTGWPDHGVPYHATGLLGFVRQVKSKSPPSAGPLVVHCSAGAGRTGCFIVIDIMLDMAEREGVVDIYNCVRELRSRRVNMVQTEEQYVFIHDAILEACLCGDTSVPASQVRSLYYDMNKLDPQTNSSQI

The mark [1] stands for this setting: pNPP or FDP as substrate, 25° C., read-out: PTP IC50 1B.
Where [2] appears, read: pNPP or FDP as substrate, 25° C., read-out: PTP IC50 Sigma.
Setting [3] is: pNPP or FDP as substrate, 25° C., read-out: PTP IC50 Beta.
[4] abbreviates: pNPP or FDP as substrate, 25° C., read-out: PTP IC50 Mu.
[5] abbreviates: comparison of R groups, read-out: IC50 1B.
The mark [6] stands for this setting: comparison of R groups, read-out: IC50 Sigma.
Setting [7] is: comparison of R groups, read-out: IC50 Beta.
Where [8] appears, read: comparison of R groups, read-out: IC50 Mu.

Structures are written as SMILES. Where two headings read alike, the source gives them in different places.

The term IC50 denotes the concentration that gives 50% inhibition.

For `O=C(O)Cc1cccc(CC(=O)Nc2cccc(S(=O)(=O)C(F)(F)F)c2)c1` [Example 28, {3-[(3-Trifluoromethanesulfonyl-phenylcarbamoyl)-methyl]-phenyl}-acetic acid], the IC50 at PTP 1B (setting [1]) was 27.6 µM; at PTP SIGMA (setting [2]), 45.1 µM; on PTP BETA (setting [3]) it was 3.2 µM; on PTP MU (setting [4]), > 100 µM.

`O=C(O)Cc1ccc(CC(=O)Nc2cccc(S(=O)(=O)C(F)(F)F)c2)cc1` [Example 29, {4-[(3-Trifluoromethanesulfonyl-phenylcarbamoyl)-methyl]-phenyl}-acetic acid]: the IC50 on PTP 1B (setting [1]) was 35.4 µM; on PTP SIGMA (setting [2]), 60.6 µM; at PTP BETA (setting [3]) it was 6.4 µM; on PTP MU (setting [4]) it was > 100 µM.

In the case of `NC(=O)c1cc(Oc2ccc(S(=O)(=O)C(F)(F)F)cc2[N+](=O)[O-])cc(Oc2ccc(S(=O)(=O)C(F)(F)F)cc2[N+](=O)[O-])c1` [Example 30, 3,5-Bis-(2-nitro-4-trifluoromethanesulfonyl-phenoxy)-benzamide], the half-inhibitory concentration (IC50) at PTP 1B (PTP IC50 1B, pNPP or FDP as substrate, 25° C.) is > 100 µM; at PTP SIGMA (PTP IC50 Sigma, pNPP or FDP as substrate, 25° C.), 26.5 µM; at PTP BETA (PTP IC50 Beta, pNPP or FDP as substrate, 25° C.), 3.4 µM; at PTP MU, 28.4 µM.

As for `O=C(O)c1cc(Oc2ccc(S(=O)(=O)C(F)(F)F)cc2)cc(Oc2ccc(S(=O)(=O)C(F)(F)F)cc2)c1` [Example 31, 3,5-Bis-(4-trifluoromethanesulfonyl-phenoxy)-benzoic acid], the IC50 at PTP 1B (setting [1]) was 6.2 µM; on PTP SIGMA (setting [2]) it was 7.7 µM; at PTP BETA (setting [3]), 4.5 µM; on PTP MU (setting [4]) it was 8.7 µM.

In the case of `O=S(=O)(Nc1ccc(CCc2ccc(NS(=O)(=O)C(F)(F)F)cc2)cc1)C(F)(F)F` [Example 66, 1,2-Bis(4-trifluoromethylsulfonamidophenyl)ethane], the IC50 at PTP 1B (setting [1]) is 60.4 µM; at PTP SIGMA (setting [2]), > 100 µM; at PTP BETA (setting [3]) it was 39.9 µM; at PTP MU (setting [4]), 70.9 µM.

In the case of `Cc1cc(NS(=O)(=O)C(F)(F)F)ccc1CCc1ccc(NS(=O)(=O)C(F)(F)F)cc1C` [Example 67, 1,2-Bis(2-methyl-4-trifluoromethylsulfonamidophenyl)ethane], the IC50 on PTP 1B (setting [1]) was found to be 35 µM; at PTP SIGMA (setting [2]), 41.4 µM; on PTP BETA (setting [3]), 55.9 µM; at PTP MU (setting [4]), 41.3 µM.

In the case of `CC(C)(COc1ccc(NS(=O)(=O)C(F)(F)F)cc1)COc1ccc(NS(=O)(=O)C(F)(F)F)cc1` [Example 68, 1,3-Bis(4-trifluoromethylsulfonamidophenoxy)-2,2-dimethylpropane], the IC50 at PTP 1B (setting [1]) amounted to 44.6 µM; on PTP SIGMA (setting [2]), 11.6 µM; on PTP BETA (setting [3]), 15.2 µM; on PTP MU (setting [4]) it was 42 µM.

Turning to `O=S(=O)(Nc1ccc(OCCCOc2ccc(NS(=O)(=O)C(F)(F)F)cc2)cc1)C(F)(F)F` [Example 69, 1,3-Bis(4-trifluoromethylsulfonamidophenoxy)propane], the half-maximal inhibitory concentration (IC50) is 78.9 µM at PTP 1B (setting [1]), 41.7 µM on PTP SIGMA (setting [2]), > 100 µM on PTP BETA (setting [3]) and 37 µM at PTP MU (setting [4]).

In the case of `O=S(=O)(Nc1ccc(OCCCCOc2ccc(NS(=O)(=O)C(F)(F)F)cc2)cc1)C(F)(F)F` [Example 70, 1,4-Bis(4-trifluoromethylsulfonamidophenoxy)butane], the IC50 at PTP 1B (setting [1]) stood at 85 µM; at PTP SIGMA (setting [2]) it was 38.1 µM; on PTP BETA (setting [3]), 7 µM; on PTP MU (setting [4]), 65.3 µM.

On to `O=S(=O)(Nc1ccc(Oc2ccc(Oc3ccc(NS(=O)(=O)C(F)(F)F)cc3)cc2)cc1)C(F)(F)F` [Example 71, 1,4-Bis(4-trifluoromethylsulfonamidophenoxy)benzene], for which the IC50 came out at 10.6 µM on PTP 1B (setting [5]); 10.6 µM on PTP 1B (setting [1]); 44 µM at PTP SIGMA (setting [6]); 44 µM on PTP SIGMA (setting [2]); 12.1 µM on PTP BETA (setting [7]); 12.1 µM at PTP BETA (setting [3]). The IC50 on PTP MU (setting [8]) was 4 µM.

In the case of `O=S(=O)(Nc1ccc(Oc2ccc(NS(=O)(=O)C(F)(F)F)cc2)cc1)C(F)(F)F` [Example 73, Bis(4-trifluoromethylsulfonamidophenyl) ether], the IC50 is > 100 µM at PTP 1B (setting [1]), > 100 µM on PTP SIGMA (setting [2]), > 100 µM at PTP BETA (setting [3]) and 76.1 µM at PTP MU (setting [4]).

In the case of `O=S(=O)(Nc1ccc(Oc2cccc(Oc3ccc(NS(=O)(=O)C(F)(F)F)cc3)c2)cc1)C(F)(F)F` [Example 74, 1,3-Bis(4-trifluoromethylsulfonamidophenoxy)benzene], the IC50 was determined as 7.7 µM on PTP 1B (setting [1]), 7.6 µM on PTP SIGMA (setting [2]), 26.6 µM at PTP BETA (setting [3]) and 3.9 µM at PTP MU (setting [4]).

Consider `O=S(=O)(Nc1ccc(-c2nnc(-c3ccc(NS(=O)(=O)C(F)(F)F)cc3)o2)cc1)C(F)(F)F` [Example 75, 2,5-Bis(4-trifluoromethylsulfonamidophenyl)-(1,3,4)oxadiazole], for which the IC50 on PTP 1B (setting [1]) turned out to be 8.4 µM; at PTP SIGMA (setting [2]) it was 13.2 µM; on PTP BETA (setting [3]), 2.9 µM; at PTP MU (setting [4]), 32.4 µM.

`CC(C)(c1ccc(NS(=O)(=O)C(F)(F)F)cc1)c1ccc(C(C)(C)c2ccc(NS(=O)(=O)C(F)(F)F)cc2)cc1` [Example 76]: the IC50 on PTP 1B (setting [1]) was 2.5 µM; on PTP SIGMA (setting [2]), 20 µM; on PTP BETA (setting [3]), 6.4 µM; on PTP MU (setting [4]), 6.7 µM.

Take `Nc1ccc(Oc2ccc(Oc3ccc(N)cc3)cc2)cc1` [NH2]: the IC50 on PTP 1B (setting [5]), at PTP SIGMA (setting [6]), on PTP BETA (setting [7]) and on PTP MU (setting [8]) was > 100 µM throughout.

(Values after patent US6596772B1, “Phosphate mimics and methods of treatment using phosphatase inhibitors” (Sugen, Inc., priority 1999, dated 2003).)
